Assay results reported in BindingDB's records for doi:10.1021/ml3000879 (2012).

Tests used:
[1] = target: Dual specificity protein kinase TTK (Homo sapiens) (UniProt P33981); assay: Inhibition of Mps1-mediated p38 MAPK phosphorylation after 90 mins by DELFIA assay
[2] = target: Dual specificity protein kinase TTK (Homo sapiens) (UniProt P33981); assay: Inhibition of FLAG-tagged Mps1 autophosphorylation in human RERF-LC-AI cells expressing Tet-suppressible promotor after 3 hrs by immunoblotting

Row | IC50 [1] | IC50 [2] | SMILES
1 | 37 nM | 1800 nM | CCOc1nc(Nc2ccc(C(N)=O)cc2)cc(N)c1C#N
2 | 3970 nM |  | CCOc1nc(NCCc2ccccc2)cc(N)c1C#N
3 | 529 nM |  | CCOc1nc(C(=O)NCc2ccccc2)cc(N)c1C#N [4-Amino-5-cyano-6-ethoxy-pyridine-2-carboxylic acid benzylamide]
4 | 4200 nM |  | CCOc1nc(NC(=O)Cc2ccccc2)cc(N)c1C#N [N-(4-Amino-5-cyano-6-ethoxypyridin-2-yl)-2-phenylacetamide]
5 | 228 nM |  | CCOc1nc(Nc2ccccc2)cc(N)c1C#N
6 | 568 nM |  | CCOc1nc(C(=O)NCc2ccc(S(C)(=O)=O)cc2)cc(N)c1C#N [4-amino-5-cyano-6-ethoxy-N-[(4-methanesulfonylphenyl)methyl]pyridine-2-carboxamide]
